This note sets out measurements from patent US8609812B2, “Use of β-2-microglobulin to assess glomerular alterations and damage in the kidney” (Novartis AG, priority 2007, dated 2013).

The data set deals with kidney. In words: rat in vivo studies, histopathology of kidney. An excerpt:
Results of in vivo studies and histopathology. All 10 rat in vivo studies were successfully conducted.
In FIG. 2, the distributions of grades of the histopathology assessment are shown. The predominance of grade 1 and grade 2 findings and the absence of grade 5 lesions indicate that the goal of inducing mainly mild nephrotoxicity has been achieved. The considerable number of grade 1 and some grade 2 findings in the vehicle-dosed and the hepatotoxicant-dosed animals indicates the level of sensitivity of the histopathology assessment performed in this project. No significant dose-dependent nephrotoxicity was induced by the hepatotoxicants. In FIG. 3 a detailed list of all reported localized lesions, including the number of occurrences for each grade, separated by nephrotoxicant-dosed animals and the control animals (vehicle-dosed and hepatotoxicant-dosed) is shown. Seventy-five different localized finding were observed.
The different types of lesions were usually not observed in an isolated fashion, but typically in a highly correlated manner representing different molecular processes. In FIG. 4, all histopathology findings are shown for the cisplatin study. […] In addition, a logical sequence of molecular processes along the dose- and time-ordered animals can be observed. […]

Each structure is given as a SMILES string.

Take `S=C=Nc1cccc2ccccc12` [ANIT, alpha-naphtylisothiocyanate]: the “histopathology findings in the kidney” value (ANIT study, vehicle or different doses) was “not in the kidney”. `N.N.[Cl][Pt][Cl]` [cisplatin]: the “renal histopathology findings, sequence of processes” value (rat, in vivo) is “Necrosis as a consequence of damage is seen, and then regeneration processes such as basophilia and mitosis are seen”.
